Literature values in publication PMC8781228 (Bioorganic & medicinal chemistry letters, 2017).

Columns and labels:
S1PR2 [1] = settings: read-out: EC50 (allosteric S1PR2 selective agonist)
S1PR2 [2] = settings: [33P]S1P competitive binding assay
S1PR4 = settings: [γ-35S]GTPγS binding assay
S1PR1 = settings: [γ-35S]GTPγS binding assay
S1PR2 [3] = settings: [γ-35S]GTPγS binding assay
S1PR5 = settings: [γ-35S]GTPγS binding assay
S1PR3 = settings: [γ-35S]GTPγS binding assay

EC50 (S1PR2 [1]) [nM] | Structure (SMILES) | competition with S1P (S1PR2 [2]) | activity at S1PR4 (S1PR4) | activity at S1PR1 (S1PR1) | activity at S1PR2 (S1PR2 [3]) | activity at S1PR5 (S1PR5) | activity at S1PR3 (S1PR3)
480 | Cc1cc(C(=O)Cn2cc(C#N)ccc2=O)c(C)n1Cc1ccccc1 [CYM-5520] | not competitive with S1P | – | – | – | – | –
– | CCCCCCCCc1ccc(CCC(N)(CO)CO)cc1 [FTY720, fingolimod] | – | potent agonist | potent agonist | inactive | potent agonist | potent agonist
